Measured values published in PMC9927415, “Tyrosine Kinase Inhibitors Display Potent Activity against Cryptosporidium parvum” (Microbiology Spectrum, 2022).

Legend:
Assay in all cases: KINOMEscan competitive binding
[1] = target: T1, TNK1 (Homo sapiens, UniProt Q13470); conditions: n=1, read-out: Percent inhibition, TNK1
T1 construct: purchased DiscoverX (KINOMEscan)
T1 sequence (Q13470 1-666): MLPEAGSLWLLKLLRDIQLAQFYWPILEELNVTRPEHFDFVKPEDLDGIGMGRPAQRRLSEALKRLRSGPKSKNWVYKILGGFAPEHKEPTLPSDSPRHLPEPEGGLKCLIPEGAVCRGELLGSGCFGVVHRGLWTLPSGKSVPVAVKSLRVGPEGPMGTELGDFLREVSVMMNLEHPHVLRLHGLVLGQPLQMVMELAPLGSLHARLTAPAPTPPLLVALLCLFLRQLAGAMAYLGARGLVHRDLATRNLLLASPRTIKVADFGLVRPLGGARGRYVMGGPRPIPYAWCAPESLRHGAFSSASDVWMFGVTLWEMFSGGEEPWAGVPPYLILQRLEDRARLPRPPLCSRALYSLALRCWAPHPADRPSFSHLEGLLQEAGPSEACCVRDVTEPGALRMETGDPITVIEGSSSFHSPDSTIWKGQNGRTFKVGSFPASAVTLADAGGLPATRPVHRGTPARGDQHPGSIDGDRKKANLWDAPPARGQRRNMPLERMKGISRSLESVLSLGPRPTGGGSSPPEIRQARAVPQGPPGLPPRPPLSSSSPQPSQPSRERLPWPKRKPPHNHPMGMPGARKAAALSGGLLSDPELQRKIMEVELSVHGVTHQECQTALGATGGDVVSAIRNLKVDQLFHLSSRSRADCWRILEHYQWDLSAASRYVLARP

[2] = target: T2, PIM1 (Homo sapiens, UniProt P11309); conditions: n=1, read-out: Percent inhibition, PIM1
T2 construct: purchased DiscoverX (KINOMEscan)

[3] = target: T3, PAK2 (Homo sapiens, UniProt Q13177); conditions: n=1, read-out: Percent inhibition, PAK2
T3 construct: purchased DiscoverX (KINOMEscan)

[4] = target: T4, PRKX (Homo sapiens, UniProt P51817); conditions: n=1, read-out: Percent inhibition, PRKX
T4 construct: purchased DiscoverX (KINOMEscan)
T4 sequence (P51817 1-358): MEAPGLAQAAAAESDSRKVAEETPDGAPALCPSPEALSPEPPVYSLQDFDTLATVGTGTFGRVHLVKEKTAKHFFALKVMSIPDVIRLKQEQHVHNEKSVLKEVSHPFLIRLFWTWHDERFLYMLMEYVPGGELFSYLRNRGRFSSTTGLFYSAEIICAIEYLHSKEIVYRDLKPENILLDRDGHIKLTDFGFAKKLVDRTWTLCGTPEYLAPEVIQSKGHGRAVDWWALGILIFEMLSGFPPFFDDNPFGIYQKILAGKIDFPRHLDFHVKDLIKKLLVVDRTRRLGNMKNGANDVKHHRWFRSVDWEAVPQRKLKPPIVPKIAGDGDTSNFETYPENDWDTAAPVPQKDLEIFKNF

[5] = target: T5, SRPK1 (Homo sapiens, UniProt Q96SB4); conditions: n=1, read-out: Percent inhibition, SRPK1
T5 construct: purchased DiscoverX (KINOMEscan)

[6] = target: T6, YANK2 (Homo sapiens, UniProt Q9NY57); conditions: n=1, read-out: Percent inhibition, YANK2
T6 construct: purchased DiscoverX (KINOMEscan)

[7] = target: T7, RPS6KA2(Kin.Dom.1) (Homo sapiens, UniProt Q15349); conditions: n=1, read-out: Percent inhibition, RPS6KA2(Kin.Dom.1)
T7 construct: RPS6KA2(Kin.Dom.1); purchased DiscoverX (KINOMEscan)

[8] = target: T8, PRKG2 (Homo sapiens, UniProt Q13237); conditions: n=1, read-out: Percent inhibition, PRKG2
T8 construct: purchased DiscoverX (KINOMEscan)
T8 sequence (Q13237 1-762): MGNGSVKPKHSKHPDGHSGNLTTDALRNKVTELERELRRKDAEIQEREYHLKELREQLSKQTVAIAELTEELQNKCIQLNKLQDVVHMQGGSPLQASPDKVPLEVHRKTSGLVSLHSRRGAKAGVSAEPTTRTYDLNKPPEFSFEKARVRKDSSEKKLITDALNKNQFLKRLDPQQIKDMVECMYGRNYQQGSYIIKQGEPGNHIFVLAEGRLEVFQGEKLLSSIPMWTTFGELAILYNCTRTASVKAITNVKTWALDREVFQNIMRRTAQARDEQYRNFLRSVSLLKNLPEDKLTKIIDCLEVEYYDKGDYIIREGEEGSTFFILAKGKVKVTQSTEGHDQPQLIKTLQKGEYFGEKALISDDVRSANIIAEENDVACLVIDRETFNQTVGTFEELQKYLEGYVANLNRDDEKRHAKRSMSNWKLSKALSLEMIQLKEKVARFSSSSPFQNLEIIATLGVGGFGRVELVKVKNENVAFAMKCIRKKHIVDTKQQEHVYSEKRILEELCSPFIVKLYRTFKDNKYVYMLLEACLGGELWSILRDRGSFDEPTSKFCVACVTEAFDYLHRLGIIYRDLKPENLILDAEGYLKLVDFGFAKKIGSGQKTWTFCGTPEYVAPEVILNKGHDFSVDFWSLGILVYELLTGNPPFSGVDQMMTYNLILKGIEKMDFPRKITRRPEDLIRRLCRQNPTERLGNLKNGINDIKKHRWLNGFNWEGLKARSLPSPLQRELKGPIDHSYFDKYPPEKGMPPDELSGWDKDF

Row | Structure (SMILES) | inhibition at 10 µM [1] [%] | inhibition at 10 µM [2] [%] | inhibition at 10 µM [3] [%] | inhibition at 10 µM [4] [%] | inhibition at 10 µM [5] [%] | inhibition at 10 µM [6] [%] | inhibition at 10 µM [7] [%] | inhibition at 10 µM [8] [%]
1 | CN1CCN(c2ccc(Nc3nccc(-c4cnn5ncccc45)n3)cc2C#N)CC1 [Compound 1] | 87.1 | 99.8 | 95.4 | 0 | 95.5 | 0 | 77.6 | 0
2 | COc1ccc(Nc2nccc(-c3cnn4ncccc34)n2)cc1 [Compound 2] | 90.2 | 0 | 0 | 0 | 90.6 | 0 | 0 | 0
3 | Cc1ccc(O)cc1Nc1ccnc(Nc2cccc(C(N)=O)c2)n1 [Compound 3] | 80.1 | 0 | 93.4 | 0 | 0 | 0 | 0 | 0
4 | Cc1ccc(O)cc1N(C)c1ccnc(Nc2cccc(S(N)(=O)=O)c2)n1 [Compound 4] | 87.7 | 0 | 100 | 0 | 0 | 94.5 | 0 | 0
5 | Fc1cccc(COc2ccc(Nc3ncnc4c3CN(CCN3CCOCC3)CC4)cc2Cl)c1 [Compound 6] | 0 | 0 | 97.6 | 0 | 0 | 0 | 0 | 0
6 | COc1cc(Nc2nccc(-c3sc(N)nc3-c3cccc(NC(=O)c4c(F)cccc4F)c3)n2)cc(OC)c1OC [Compound 7] | 100 | 0 | 90 | 0 | 0 | 93 | 97.2 | 0
7 | C[C@@H](Oc1cc(-c2cnc3ccccn23)sc1C(N)=O)c1ccccc1Cl [Compound 8] | 0 | 76.4 | 0 | 0 | 96.1 | 0 | 70 | 0
8 | c1ccc(COc2cccc(-c3ccnc4[nH]ccc34)c2)cc1 [Compound 9] | 0 | 0 | 0 | 0 | 71.2 | 0 | 0 | 0
9 | Clc1ccc(Nc2ncc(-c3ccccc3)s2)cc1 [Compound 10] | 0 | 0 | 0 | 0 | 0 | 0 | 0 | 0
10 | Nc1ncc2c(-c3ccncc3)c[nH]c2n1 [Compound 11] | 0 | 0 | 0 | 0 | 0 | 0 | 0 | 0
